Values quoted from earlier work as cited in patent US20140134224A1, “STABLE COMPOSITION OF HOCI, A PROCESS FOR ITS PRODUCTION AND USES THEREOF” (priority 2011, published 2014).
Like-named read-outs stand apart in the source and are kept apart here.

Tests used:
[1] = test system: B. metiens spores; conditions: 25 ppm available chlorine
[2] = unstabilised HOCl solutions of the prior art
[3] = Kapoor 1968

Structure (SMILES) | time taken to produce a 99% kill of spores ([1]; pH 6) [min] | time taken to produce a 99% kill of spores ([1]; pH 7) [min] | time taken to produce a 99% kill of spores ([1]; pH 8) [min] | time taken to produce a 99% kill of spores ([1]; pH 9) [min] | time taken to produce a 99% kill of spores ([1]; pH 9.35) [min] | time taken to produce a 99% kill of spores ([1]; pH 10) [min] | time taken to produce a 99% kill of spores ([1]; pH 12.86) [min] | half-life [2] | times less effective than hypochlorous acid as a disinfectant [3]
OCl [HOCl, Hypochlorous (or hydrochlorous) acid] | 2.5 | 3.6 | 5 | 19.5 | 35.5 | 131 | 465 | around 48 hours | –
OCl [hypochlorite ion, hypochlorite] | – | – | – | – | – | – | – | – | up to 120 times
